Where two headings read alike, the source gives them in different places. Square brackets hold non-standard residues; d marks the D form. Ends that are not written are not given here. pY = N[C@@H](Cc1ccc(OP(=O)(O)O)cc1)C(=O)O
What was measured:
[1] = tested on: MOLM-13Luc/CBLock cells in NSG mice
[2] = Solubility as noted by the authors; format: physicochemical; details: qualitative, aqueous solution
[3] = tested on: CBL (47–435) R139C/D435C variant (diCys); assay: Disulfide bond formation assay; format: biochemical; details: CBL 47–435 diCys, SDS-PAGE, n = 3
Procedure: CBL variant mixtures were prepared at room temperature as described previously,[7] keeping aside a sample portion for zero-time point. Removal of DTT using a Zeba spin desalting column (Thermo Scientific) initiated the reactions. At indicated time points, samples were removed and quenched with 20 mM N-ethylmaleimide (NEM; Sigma) for 10 min and mixed with 4X SDS loading buffer. DTT (100 mM) was added to prepare the reduced samples. The samples were resolved by SDS-PAGE and the gels stained with Coomassie blue were scanned. The disulfide-bonded (D) and unmodified species (U) were quantified using the Image Studio software. Three independent experiments were performed, and curves for the disulfide bond fractions from each reaction were generated using GraphPad Prism.

[4] = tested on: CBL mutant 70Z; assay: GFP-trap co-immunoprecipitation with Myc-tagged CBL-70Z in HEK293 cells; format: cell-based; details: expressed as GFP-CBLock variants in HEK293 cells
Procedure: The cells were pelleted and lysed in IP lysis buffer (50 mM Tris-HCl pH 7.5, 150 mM NaCl, 1 mM EDTA, 1% IGEPAL CA-630, 10% glycerol, 0.5 mM DTT, and cOmplete protease inhibitor cocktail) to prepare the whole cell lysates. Immunoprecipitation and immunoblotting were performed using the lysates as described before.[28] For each regular immunoprecipitation reaction, 1 mg freshly prepared whole cell lysate was incubated with primary antibodies at 4 °C for 4 h on a rotatory shaker. […] Alternatively for each reaction, 1 mg freshly prepared whole cell lysate was incubated overnight with antibody- or immunoglobulin (Ig)G-conjugated agarose beads. The next day beads were washed three times with IP lysis buffer and once with PBS. […] This was followed by similar washing steps as mentioned before. The beads were then either processed for mass spectrometry or immunoprecipitated proteins were eluted at 95 °C in 40 μL 2X loading dye. A previous method was used to perform immunoblotting[51] and the immunoblots were scanned using an Odyssey CLx Imaging System (LI-COR Biosciences).

Compound | Effect on diCys disulfide bond formation [3] | Binding to CBL mutant 70Z [4] | other results
CC[C@H](C)[C@H](NC(=O)[C@H](Cc1c[nH]c2ccccc12)NC(=O)[C@H](CO)NC(=O)[C@H](CC(=O)O)NC(=O)[C@H](CCSC)NC(=O)[C@H](CCC(=O)O)NC(=O)[C@H](CCC(=O)O)NC(=O)[C@@H](NC(=O)[C@@H](NC(=O)[C@@H](N)CCSC)[C@@H](C)O)C(C)C)C(=O)N[C@@H](CCCCN)C(=O)N[C@@H](CO)C(=O)N[C@@H](Cc1c[nH]c2ccccc12)C(=O)N[C@@H](CC(=O)O)C(=O)N[C@@H](CCC(N)=O)C(=O)N[C@@H](CCCNC(=N)N)C(=O)O [CBLock] |  |  | Body weight ([1]; cohort two): no marked changes in body weights; Body weight ([1]; first experiment, dox vs vehicle): no obvious difference in body weight; Solubility [2]: enhanced solubility in aqueous solution
TLNSDG(p)YTPEPA [pZAP70, phosphotyrosine substrate peptide from ZAP70] | prevented formation of the diCys disulfide bond |  | 
STVSFNP[pY]EPTGGPWG [pSYK, phosphotyrosine substrate peptide from SYK] | prevented formation of the diCys disulfide bond |  | 
CBLock-DM: CBLock mutant D7A/I10A expressed as GFP or iRFP fusion (MTVEEMASWAKSWDQR; also: fused to GFP or iRFP) |  | failed to bind the CBL mutant 70Z | 
SMEKTDQWRMVEIDSW [CBLock-Sc1] |  | failed to bind the CBL mutant 70Z | 
IKDWQDRSVWESMTME [CBLock-Sc2] |  | failed to bind the CBL mutant 70Z | 

— article PMC12461627, “Locking CBL TKBD in its native conformation presents a novel therapeutic opportunity in mutant CBL-dependent leukemia” (Molecular Therapy, 2025)
